Data from patent publication US20240043404A1 (AbbVie Inc., priority 2009, published 2024).
Like-named read-outs stand apart in the source and are kept apart here.

System: RS4;11 cells
Assay: RS4;11 cell viability assay (CellTiter Glo);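 note: acute lymphoblastic leukemia line RS4,11, EC50 derived from percentage of viable cells after treatment relative to untreated controls, cell killing taken as a measure of Bcl-2 inhibition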
Format: cell-based, human
Conditions: read-out: RS4
[1] = Homo sapiens, RS4-11, 48 h, 50,000 cells per well, 10% human serum, 48 hours, 11 EC50 Values
[2] = Homo sapiens, RS4-11, Table 5, direct comparison Z=N with corresponding analogs Z=C, 11 EC50
[3] = Homo sapiens, RS4-11, Table 4, selected compounds in U.S. Pat. Application No. 12/631404, 11 EC50

Experimental: The acute lymphoblastic leukemia (ALL) cell line RS4;11 was used as the primary human cell line to assess the cellular activity of Bcl-2 selective agents in vitro and their efficacy in vivo.
Cell cytotoxicity EC50 values were assessed using CellTiter Glo (Promega) according to the manufacturer's recommendations. The EC50 values were determined as a percentage of viable cells following treatment compared to the untreated control cells.

| Compound | EC50 [1] [nM] | EC50 [2] [nM] | EC50 [3] [nM] | EC50 (Table 5, direct comparison Z=N with corresponding analogs Z=C, 11 EC50) [nM] |
| --- | --- | --- | --- | --- |
| 4-{4-[(4′-chloro-1,1′-biphenyl-2-yl)methyl]piperazin-1-yl}-2-(1H-indol-5-yloxy)-N-({3-nitro-4-[(tetrahydro-2H-pyran-4-ylmethyl)amino]phenyl}sulfonyl) benzamide [Example 87] |  |  |  | 1180 |
| CC1(C)CCC(CN2CCN(c3ccc(C(=O)NS(=O)(=O)c4ccc(NC5CCN([C@H]6CCOC[C@H]6F)CC5)c([N+](=O)[O-])c4)c(Oc4cnc5[nH]ccc5c4)c3)CC2)=C(c2ccc(Cl)cc2)C1 (relative stereo) [Example 115, 4-(4-{[2-(4-chlorophenyl)-4,4-dimethylcyclohex-1-en-1-yl]methyl}piperazin-1-yl)-N-{[4-({1-[cis-3-fluorotetrahydro-2H-pyran-4-yl]piperidin-4-yl}amino)-3-nitrophenyl]sulfonyl}-2-(1H-pyrrolo[2,3-b]pyridin-5-yloxy)benzamide] | 11.8 |  |  |  |
| O=C(NS(=O)(=O)c1ccc(NCC2CCOCC2)c([N+](=O)[O-])c1)c1ccc(N2CCN(Cc3ccccc3-c3ccc(Cl)cc3)CC2)cc1Oc1cnc2[nH]ccc2c1 [Example 1, 4-{4-[(4′-chloro-1,1′-biphenyl-2-yl)methyl]piperazin-1-yl}-N-({3-nitro-4-[(tetrahydro-2H-pyran-4-ylmethyl)amino]phenyl}sulfonyl)-2-(1H-pyrrolo[2,3-b]pyridin-5-yloxy)benzamide] | 712 | 712 |  |  |
| O=C(NS(=O)(=O)c1ccc(NCCCN2CCOCC2)c([N+](=O)[O-])c1)c1ccc(N2CCN(Cc3ccccc3-c3ccc(Cl)cc3)CC2)cc1Oc1cnc2[nH]ccc2c1 [Example 2, 4-{4-[(4′-chloro-1,1′-biphenyl-2-yl)methyl]piperazin-1-yl}-N-({4-[(3-morpholin-4-ylpropyl)amino]-3-nitrophenyl}sulfonyl)-2-(1H-pyrrolo[2,3-b]pyridin-5-yloxy)benzamide] | 783 | 783 |  |  |
| CC1(C)CCC(CN2CCN(c3ccc(C(=O)NS(=O)(=O)c4ccc(NC5CCN(C6CCOCC6)CC5)c([N+](=O)[O-])c4)c(Oc4cnc5[nH]ccc5c4)c3)CC2)=C(c2ccc(Cl)cc2)C1 [Example 3, 4-(4-{[2-(4-chlorophenyl)-4,4-dimethylcyclohex-1-en-1-yl]methyl}piperazin-1-yl)-N-({3-nitro-4-[(1-tetrahydro-2H-pyran-4-ylpiperidin-4-yl)amino]phenyl}sulfonyl)-2-(1H-pyrrolo[2,3-b]pyridin-5-yloxy)benzamide] | 14.2 | 14.2 |  |  |
| CC1(C)CCC(CN2CCN(c3ccc(C(=O)NS(=O)(=O)c4ccc(NCC5CCOCC5)c([N+](=O)[O-])c4)c(Oc4cnc5[nH]ccc5c4)c3)CC2)=C(c2ccc(Cl)cc2)C1 [Example 5, 4-(4-{[2-(4-chlorophenyl)-4,4-dimethylcyclohex-1-en-1-yl]methyl}piperazin-1-yl)-N-({3-nitro-4-[(tetrahydro-2H-pyran-4-ylmethyl)amino]phenyl}sulfonyl)-2-(1H-pyrrolo[2,3-b]pyridin-5-yloxy)benzamide] | 12.4 | 12 |  |  |
| CN1CCN(Nc2ccc(S(=O)(=O)NC(=O)c3ccc(N4CCN(CC5=C(c6ccc(Cl)cc6)CC(C)(C)CC5)CC4)cc3Oc3cnc4[nH]ccc4c3)cc2[N+](=O)[O-])CC1 [Example 6, 4-(4-{[2-(4-chlorophenyl)-4,4-dimethylcyclohex-1-en-1-yl]methyl}piperazin-1-yl)-N-({4-[(4-methylpiperazin-1-yl)amino]-3-nitrophenyl}sulfonyl)-2-(1H-pyrrolo[2,3-b]pyridin-5-yloxy)benzamide] | 34.9 | 35 |  |  |
| CC1(C)CCC(CN2CCN(c3ccc(C(=O)NS(=O)(=O)c4ccc(NCCCN5CCCC5)c([N+](=O)[O-])c4)c(Oc4cccc5[nH]c6ccccc6c45)c3)CC2)=C(c2ccc(Cl)cc2)C1 [Example 8, 2-(9H-carbazol-4-yloxy)-4-(4-{[2-(4-chlorophenyl)-4,4-dimethylcyclohex-1-en-1-yl]methyl}piperazin-1-yl)-N-({3-nitro-4-[(3-pyrrolidin-1-ylpropyl)amino]phenyl}sulfonyl)benzamide] | 158 |  |  |  |
| CC1(C)CCC(CN2CCN(c3ccc(C(=O)NS(=O)(=O)c4ccc(NC[C@@H]5CCCOC5)c([N+](=O)[O-])c4)c(Oc4cnc5[nH]ccc5c4)c3)CC2)=C(c2ccc(Cl)cc2)C1 [Example 11, 4-(4-{[2-(4-chlorophenyl)-4,4-dimethylcyclohex-1-en-1-yl]methyl}piperazin-1-yl)-N-[(3-nitro-4-{[(3S)-tetrahydro-2H-pyran-3-ylmethyl]amino}phenyl)sulfonyl]-2-(1H-pyrrolo[2,3-b]pyridin-5-yloxy)benzamide] | 13.9 | 14 |  |  |
| COCCNc1ccc(S(=O)(=O)NC(=O)c2ccc(N3CCN(CC4=C(c5ccc(Cl)cc5)CC(C)(C)CC4)CC3)cc2Oc2cnc3[nH]ccc3c2)cc1S(=O)(=O)C(F)(F)F [Example 16, 4-(4-{[2-(4-chlorophenyl)-4,4-dimethylcyclohex-1-en-1-yl]methyl}piperazin-1-yl)-N-({4-[(2-methoxyethyl)amino]-3-[(trifluoromethyl)sulfonyl]phenyl}sulfonyl)-2-(1H-pyrrolo[2,3-b]pyridin-5-yloxy)benzamide] | 1210 | 1210 |  |  |
| CC1(C)CCC(CN2CCN(c3ccc(C(=O)NS(=O)(=O)c4ccc(NCC5CCOCC5)c(S(=O)(=O)C(F)(F)F)c4)c(Oc4cnc5[nH]ccc5c4)c3)CC2)=C(c2ccc(Cl)cc2)C1 [Example 17, 4-(4-{[2-(4-chlorophenyl)-4,4-dimethylcyclohex-1-en-1-yl]methyl}piperazin-1-yl)-2-(1H-pyrrolo[2,3-b]pyridin-5-yloxy)-N-({4-[(tetrahydro-2H-pyran-4-ylmethyl)amino]-3-[(trifluoromethyl)sulfonyl]phenyl}sulfonyl)benzamide] | 475 | 475 |  |  |
| CC1(C)CCC(CN2CCN(c3ccc(C(=O)NS(=O)(=O)c4ccc(NC[C@@H]5CCCOC5)c([N+](=O)[O-])c4)c(Oc4ccc5[nH]ccc5c4)c3)CC2)=C(c2ccc(Cl)cc2)C1 [Example 21, 4-(4-{[2-(4-chlorophenyl)-4,4-dimethylcyclohex-1-en-1-yl]methyl}piperazin-1-yl)-2-(1H-indol-5-yloxy)-N-[(3-nitro-4-{[(3S)-tetrahydro-2H-pyran-3-ylmethyl]amino}phenyl)sulfonyl]benzamide] | 62 | 62 |  |  |
| CC1(C)CCC(CN2CCN(c3ccc(C(=O)NS(=O)(=O)c4ccc(NC[C@H]5CCCOC5)c([N+](=O)[O-])c4)c(Oc4ccc5[nH]ccc5c4)c3)CC2)=C(c2ccc(Cl)cc2)C1 [Example 22, 4-(4-{[2-(4-chlorophenyl)-4,4-dimethylcyclohex-1-en-1-yl]methyl}piperazin-1-yl)-2-(1H-indol-5-yloxy)-N-[(3-nitro-4-{[(3R)-tetrahydro-2H-pyran-3-ylmethyl]amino}phenyl)sulfonyl]benzamide] | 85 | 85 |  |  |

The next lines start with results.

| EC50 [1] [nM] | EC50 [2] [nM] | EC50 [3] [nM] | Compound | EC50 (Table 5, direct comparison Z=N with corresponding analogs Z=C, 11 EC50) [nM] |
| --- | --- | --- | --- | --- |
| 12.7 |  |  | CC1(C)CCC(CN2CCN(c3ccc(C(=O)NS(=O)(=O)c4ccc(OC[C@@H]5CN(C6COC6)C[C@H]5CF)c([N+](=O)[O-])c4)c(Oc4cnc5[nH]ccc5c4)c3)CC2)=C(c2ccc(Cl)cc2)C1 (relative stereo) [Example 137, 4-(4-{[2-(4-chlorophenyl)-4,4-dimethylcyclohex-1-en-1-yl]methyl}piperazin-1-yl)-N-[(4-{[trans-4-(fluoromethyl)-1-oxetan-3-ylpyrrolidin-3-yl]methoxy}-3-nitrophenyl)sulfonyl]-2-(1H-pyrrolo[2,3-b]pyridin-5-yloxy)benzamide] |  |
| 192 |  |  | CN1CCC(Nc2ccc(S(=O)(=O)NC(=O)c3ccc(N4CCN(CC5=C(c6ccc(Cl)cc6)CC(C)(C)CC5)CC4)cc3Oc3cccc4[nH]c5ccccc5c34)cc2[N+](=O)[O-])CC1 [Example 7, 2-(9H-carbazol-4-yloxy)-4-(4-{[2-(4-chlorophenyl)-4,4-dimethylcyclohex-1-en-1-yl]methyl}piperazin-1-yl)-N-({4-[(1-methylpiperidin-4-yl)amino]-3-nitrophenyl}sulfonyl)benzamide] |  |
| 3890 |  |  | CC1(C)CCC(CN2CCN(c3ccc(C(=O)NS(=O)(=O)c4ccc5ccccc5c4)c(Oc4cnc5[nH]ccc5c4)c3)CC2)=C(c2ccc(Cl)cc2)C1 [Example 14, 4-(4-{[2-(4-chlorophenyl)-4,4-dimethylcyclohex-1-en-1-yl]methyl}piperazin-1-yl)-N-(2-naphthylsulfonyl)-2-(1H-pyrrolo[2,3-b]pyridin-5-yloxy)benzamide] |  |
| 86 | 86 |  | CC1(C)CCC(CN2CCN(c3ccc(C(=O)NS(=O)(=O)c4ccc(NCC5CCOCC5)c([N+](=O)[O-])c4)c(Oc4ccc5[nH]ccc5c4)c3)CC2)=C(c2ccc(Cl)cc2)C1 [Example 18, 4-(4-{[2-(4-chlorophenyl)-4,4-dimethylcyclohex-1-en-1-yl]methyl}piperazin-1-yl)-2-(1H-indol-5-yloxy)-N-({3-nitro-4-[(tetrahydro-2H-pyran-4-ylmethyl)amino]phenyl}sulfonyl)benzamide] |  |
| 465 | 465 | 465 | CC1(C)CCC(CN2CCN(c3ccc(C(=O)NS(=O)(=O)c4ccc(N[C@H]5CC[C@H](N6CCOCC6)CC5)c([N+](=O)[O-])c4)c(Oc4ccc5[nH]ccc5c4)c3)CC2)=C(c2ccc(Cl)cc2)C1 [Example 19, Trans-4-(4-{[2-(4-chlorophenyl)-4,4-dimethylcyclohex-1-en-1-yl]methyl}piperazin-1-yl)-2-(1H-indol-5-yloxy)-N-({4-[(4-morpholin-4-ylcyclohexyl)amino]-3-nitrophenyl}sulfonyl)benzamide] |  |
| 191 | 191 | 191 | COCCNc1ccc(S(=O)(=O)NC(=O)c2ccc(N3CCN(CC4=C(c5ccc(Cl)cc5)CC(C)(C)CC4)CC3)cc2Oc2ccc3[nH]ccc3c2)cc1[N+](=O)[O-] [Example 20, 4-(4-{[2-(4-chlorophenyl)-4,4-dimethylcyclohex-1-en-1-yl]methyl}piperazin-1-yl)-2-(1H-indol-5-yloxy)-N-({4-[(2-methoxyethyl)amino]-3-nitrophenyl}sulfonyl)benzamide] |  |
